≈ marks a conversion by molar mass, not a printed value.
Assays:
Type in all cases: physicochemical
[1] = Variable humidity and temperature XRPD experiments
[2] = Approximate solubility of solid state Form V at 25° C. and 50° C. (visual observation); conditions: thermodynamic from solid
Protocol: Maximum volume of each solvent added was 1 mL. Approximate solubility was determined by visual observation.

[3] = Precipitation by addition of anti-solvent; conditions: 1/5 (v:v)
Protocol: Anti-solvent was added into the obtained solutions slowly. Precipitates were collected by filtration. The solid part (wet cake) was investigated by XRPD. When differences were observed, additional investigations will be performed (e.g. […] etc.).

Question: With `Nc1nc(=O)n(-c2ccccc2Cl)c2nc(C(F)(F)F)ccc12` [Form A, 4-Amino-1-(2-chlorophenyl)-7-(trifluoromethyl)pyrido[2,3-d]pyrimidin-2(1H)-one] as the compound, how does the “XRPD (XRPD method 2)” value ([1]; VT14 25° C./37% RH (initial)) read?
Answer: The value was “Form A”.

Question: And the “XRPD (XRPD method 2)” value ([1]; VT15 50° C./37% RH (10 min))?
Answer: Its value is “Form A”.

Question: And the “XRPD (XRPD method 2)” value ([1]; VT17 250° C./37% RH (10 min))?
Answer: The value was “Form U”.

Question: What does the source list for `Nc1nc(=O)n(-c2ccccc2Cl)c2nc(C(F)(F)F)ccc12` [solid state Form V, 4-Amino-1-(2-chlorophenyl)-7-(trifluoromethyl)pyrido[2,3-d]pyrimidin-2(1H)-one]?
Answer: solubility at 10 min ([2]; organic solvent or mixture, SL2 Methanol, 25° C.): 15000 to 18000 µg/mL (≈ 44 to 52.8 mM); solubility at 10 min ([2]; organic solvent or mixture, SL2 Methanol, 50° C.): 30000 to 35000 µg/mL (≈ 88.1 to 103 mM); solubility at 10 min ([2]; organic solvent or mixture, SL3 Ethanol, 25° C.): 7000 to 8000 µg/mL (≈ 20.5 to 23.5 mM); solubility at 10 min ([2]; organic solvent or mixture, SL3 Ethanol, 50° C.): 15000 to 17000 µg/mL (≈ 44 to 49.9 mM); solubility at 10 min ([2]; organic solvent or mixture, SL4 2-Propanol, 25° C.): < 5000 µg/mL; solubility at 10 min ([2]; organic solvent or mixture, SL4 2-Propanol, 50° C.): 5000 to 10000 µg/mL (≈ 14.7 to 29.4 mM); solubility at 10 min ([2]; organic solvent or mixture, SL5 Ethyl acetate, 25° C.): < 5000 µg/mL; solubility at 10 min ([2]; organic solvent or mixture, SL5 Ethyl acetate, 50° C.): < 5000 µg/mL; solubility at 10 min ([2]; organic solvent or mixture, SL6 Isopropyl acetate, 25° C.): < 5000 µg/mL; solubility at 10 min ([2]; organic solvent or mixture, SL6 Isopropyl acetate, 50° C.): < 5000 µg/mL; solubility at 10 min ([2]; organic solvent or mixture, SL7 Acetone, 25° C.): < 5000 µg/mL; solubility at 10 min ([2]; organic solvent or mixture, SL7 Acetone, 50° C.): 5000 to 10000 µg/mL (≈ 14.7 to 29.4 mM); solubility at 10 min ([2]; organic solvent or mixture, SL8 Methyl ethyl ketone, 25° C.): < 5000 µg/mL; solubility at 10 min ([2]; organic solvent or mixture, SL8 Methyl ethyl ketone, 50° C.): < 5000 µg/mL; solubility at 10 min ([2]; organic solvent or mixture, SL9 t-Butyl methyl ether, 25° C.): < 5000 µg/mL; solubility at 10 min ([2]; organic solvent or mixture, SL9 t-Butyl methyl ether, 50° C.): < 5000 µg/mL; solubility at 10 min ([2]; organic solvent or mixture, SL10 Tetrahydrofuran, 25° C.): < 5000 µg/mL; solubility at 10 min ([2]; organic solvent or mixture, SL10 Tetrahydrofuran, 50° C.): < 5000 µg/mL; solubility at 10 min ([2]; organic solvent or mixture, SL11 2-methyl-THF, 25° C.): < 5000 µg/mL; solubility at 10 min ([2]; organic solvent or mixture, SL11 2-methyl-THF, 50° C.): < 5000 µg/mL; solubility at 10 min ([2]; organic solvent or mixture, SL12 Acetonitrile, 25° C.): < 5000 µg/mL; solubility at 10 min ([2]; organic solvent or mixture, SL12 Acetonitrile, 50° C.): < 5000 µg/mL; solubility at 10 min ([2]; organic solvent or mixture, SL13 Heptane, 25° C.): < 5000 µg/mL; solubility at 10 min ([2]; organic solvent or mixture, SL13 Heptane, 50° C.): < 5000 µg/mL; solubility at 10 min ([2]; organic solvent or mixture, SL14 Dichloromethane, 25° C.): < 5000 µg/mL; solubility at 10 min ([2]; organic solvent or mixture, SL14 Dichloromethane, 50° C.): < 5000 µg/mL; solubility at 10 min ([2]; organic solvent or mixture, SL15 Toluene, 25° C.): < 5000 µg/mL; solubility at 10 min ([2]; organic solvent or mixture, SL15 Toluene, 50° C.): < 5000 µg/mL; solubility at 10 min ([2]; SL1 Water, 25° C.): < 5000 µg/mL; solubility at 10 min ([2]; SL1 Water, 50° C.): < 5000 µg/mL; Crystalline Form formed by addition of anti-solvent ([3]; AS5 Ethanol (7), anti-solvent Heptane): Form G; Crystalline Form formed by addition of anti-solvent ([3]; AS8 Ethanol (7), anti-solvent Water): Form F

— patent US20260193254A1, “2-OXOQUINAZOLINE CRYSTALLINE FORMS” (IDEAYA Biosciences, Inc., priority 2022, published 2026)
